In patent US11845760B2, “PRMT5 inhibitors” (AMGEN INC., priority 2020, dated 2023):

How the values were obtained:
HCT116 WT cells = experiment: HCT116 WT cell line proliferation (CellTiter-Glo cell viability, 6 days); format: cell-based; details: Homo sapiens, HCT-116, 144 h, HCT116 WT (parent) cells, 6 days of treatment, CellTiter-Glo cell viability; read-out: HCT-116 WT IC50
Outline: (§1)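 Isogenic HCT116 pair (both MTAP alleles knocked out vs parent) in RPMI 1640 + 10% FBS, seeded overnight at 37° C, 5% CO2, then exposed 6 days to 8- or 9-point 1:3 dilutions from 1 or 10 μM. CellTiter-Glo luminescence; IC50 from sigmoidal fit, Hill slope fixed −1, top 100%, or 4-parameter logistic.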

HCT116 MTAP null cells = experiment: HCT116 MTAP null cell line proliferation (CellTiter-Glo cell viability, 6 days); format: cell-based; details: HCT116-MTAP null, 144 h, HCT116 MTAP null cells, 6 days of treatment, CellTiter-Glo cell viability; read-out: HCT-116 MTAP null IC50
Outline: as §1

SMILES | IC50 (HCT116 WT cells) | IC50 (HCT116 MTAP null cells)
C[C@@H]1COC[C@H](c2ccc(OC(F)(F)F)cn2)N1C(=O)c1cc2c3c(c(N)nc2cn1)COC3 (racemic) [Example 359, (4-amino-1,3-dihydrofuro[3,4-c][1,7]naphthyridin-8-yl)((3R,5S)-3-methyl-5-(5-(trifluoromethoxy)-2-pyridinyl)-4-morpholinyl)methanone and (4-amino-1,3-dihydrofuro[3,4-c][1,7]naphthyridin-8-yl)((3S,5R)-3-methyl-5-(5-(trifluoromethoxy)-2-pyridinyl)-4-morpholinyl)methanone] | 765 nM | 22 nM
Cc1ccccc1C1COCCN1C(=O)c1ccc2nc(N)c3c(c2c1)COC3 (racemic) [Example 362, (4-amino-1,3-dihydrofuro[3,4-c]quinolin-8-yl)-[rac-(3S)-3-(o-tolyl)morpholin-4-yl]methanone] | > 10000 nM | 3410 nM
Nc1nc2ccc(C(=O)N3CCOCC3c3ccc(F)cc3)cc2c2c1COC2 (racemic) [Example 363, (4-amino-1,3-dihydrofuro[3,4-c]quinolin-8-yl)-[rac-(3S)-3-(4-fluorophenyl)morpholin-4-yl]methanone] | > 10000 nM | 1910 nM
Nc1nc2ccc(C(=O)N3CCOCC3c3cccc(F)c3)cc2c2c1COC2 (racemic) [Example 364, (4-amino-1,3-dihydrofuro[3,4-c]quinolin-8-yl)-[rac-(3S)-3-(3-fluorophenyl)morpholin-4-yl]methanone] | > 10000 nM | 3480 nM
COc1ccc(C2COCCN2C(=O)c2ccc3nc(N)c4c(c3c2)COC4)cc1 (racemic) [Example 365, (4-amino-1,3-dihydrofuro[3,4-c]quinolin-8-yl)-[rac-(3S)-3-(4-methoxyphenyl)morpholin-4-yl]methanone] | > 10000 nM | 1560 nM
Nc1nc2ccc(C(=O)N3CCC(F)(F)CC3c3ccc(Br)cc3)cc2c2c1COC2 (racemic) [Example 368, (4-amino-1,3-dihydrofuro[3,4-c]quinolin-8-yl)-[rac-(2R)-2-(4-bromophenyl)-4,4-difluoro-1-piperidyl]methanone] | 2030 nM | 457 nM
C[C@H]1OCc2c1c(N)nc1ccc(C(=O)N3[C@@H](C)COC[C@H]3c3ccc(C(F)(F)F)cn3)cc21 (racemic) [Example 372, ((3R)-4-amino-3-methyl-1,3-dihydrofuro[3,4-c]quinolin-8-yl)((3R,5S)-3-methyl-5-(5-(trifluoromethyl)-2-pyridinyl)-4-morpholinyl)methanone and ((3R)-4-amino-3-methyl-1,3-dihydrofuro[3,4-c]quinolin-8-yl)((3S,5R)-3-methyl-5-(5-(trifluoromethyl)-2-pyridinyl)-4-morpholinyl)methanone] | 613 nM | 23 nM
C[C@H]1OCc2c1c(N)nc1ccc(C(=O)N3CCOC[C@H]3c3ccc(F)c(OC(F)(F)F)c3)cc21 (racemic) [Example 373, ((3R)-4-amino-3-methyl-1,3-dihydrofuro[3,4-c]quinolin-8-yl)((3R)-3-(4-fluoro-3-(trifluoromethoxy)phenyl)-4-morpholinyl)methanone and ((3R)-4-amino-3-methyl-1,3-dihydrofuro[3,4-c]quinolin-8-yl)((3S)-3-(4-fluoro-3-(trifluoromethoxy)phenyl)-4-morpholinyl)methanone] | 7820 nM | 442 nM
C[C@H]1OCc2c1c(N)nc1ccc(C(=O)N3CCOC[C@H]3c3ccc(F)c(C(F)(F)F)c3)cc21 (racemic) [Example 374, ((3R)-4-amino-3-methyl-1,3-dihydrofuro [3,4-c]quinolin-8-yl)((3R)-3-(4-fluoro-3-(trifluoromethyl)phenyl)-4-morpholinyl)methanone and ((3R)-4-amino-3-methyl-1,3-dihydrofuro[3,4-c]quinolin-8-yl)((3S)-3-(4-fluoro-3-(trifluoromethyl)phenyl)-4-morpholinyl)methanone] | 9890 nM | 161 nM
